Data taken from patent publication US11344627B2, “Dendrimer-exosome hybrid nanoparticles as a delivery platform” (WISCONSIN ALUMNI RESEARCH FOUNDATION, priority 2017, dated 2022).
“Also recorded” adds a separate entry of the source.

Test system: HUVEC cells
Experiment: Immunostaining of P-selectin and VCAM-1 on endothelial cells upon TNF-α treatment
Type: cell-based, human
Conditions: TNF-α 20 ng/mL, 4 hrs, confocal
Description: Immunostaining: To determine P-selectin and VCAM-1 expression on endothelial cells upon TNF-α-treatment, HUVEC cells were cultured on a cover glass and treated with 20 ng/mL of TNF-α at 37° C. for 4 hrs. The cells were fixed with 4% paraformaldehyde and blocked using a 5% BSA solution in PBS for 30 min. The cells were then incubated with primary antibodies against P-selectin or VCAM-1 for 1 hr at room temperature. The cells were incubated with fluorescence-labeled secondary antibodies for 1 hr at room temperature. The cells were washed, mounted with a mounting medium, and observed using a confocal microscope (Zeiss, Dublin, Calif.).
Potential advantages of using hMSC-derived exosomes would include the utilization of the homing properties of hMSCs to inflamed endothelia that are frequently found in cancerous regions. […] Human umbilical vein endothelial cells (HUVEC) were used to determine if the exosomes could potentially interact with the cells upon activation using TNF-α. TNF-α is known to induce expression of vascular cell adhesion molecule-1 (VCAM-1) and P-selectin that are directly involved in the hMSC binding to endothelial layers. The expression of VLA-4 and CD162 that are ligands binding to VCAM-1 and P-selectin, respectively, from the exosomes was confirmed using western blotting (FIG. 9).

TNF-α
P-selectin expression: overexpress; also recorded: increased | VCAM-1 expression: overexpress; also recorded: increased
